EPA's ToxValDB 9.5 (doi:10.2903/j.efsa.2013.2923)

Assays:
[1] = system: Apis mellifera; details: acute, mortality
[2] = system: Bird
[3] = system: Daphnia magna; details: chronic/long-term
[4] = system: Mus musculus; details: acute; oral; mortality
[5] = system: Neovison vison; details: reproduction developmental; reproduction
[6] = system: Oncorhynchus mykiss; details: acute; mortality
[7] = system: Oryctolagus sp.; details: reproduction developmental; mortality
[8] = system: Pontoscolex corethrurus; details: acute; mortality
[9] = system: Rattus norvegicus; details: reproduction developmental; mortality
[10] = system: Scenedesmus quadricauda; details: acute

For `[I-].[K+]` [Potassium iodide], the LD50 ([1]; dermal) was greater than 0.78 µg/piece, the LD50 ([1]; oral, unspecified) was greater than 2.4 µg/piece and the LD50 ([2]; acute, oral, unspecified, mortality) was greater than 1180 mg/kg-day. It also gave an NOEC ([2]; reproductive, reproduction) of 0.69 mg/kg-day, an LC50 ([2]; short-term, oral, feed, mortality) greater than 258 mg/kg-day and an NOEC [3] of 0.25 mg/L. For the same compound, the LD50 [4] was 1860 mg/kg, the NOAEL [5] was 0.5 mg/kg-day and the LC50 [6] was 2190 mg/L. For the same compound, the NOAEL [7] was 0.5 mg/kg-day, the LC50 [8] was greater than 12.5 mg/kg and the NOAEL [9] was 0.5 mg/kg-day. For the same compound, the NOEC [10] was 1310 mg/L.
